Source: PubChem BioAssay (NCI)
Where “and” joins values, the source holds several entries; their conditions need not be identical. Equal entries are not always repeated.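 Grown in 96-well plates, cells were treated for 48 hours with each compound at five concentrations. Insufficient inhibition: endpoint recorded as highest concentration tested. The concentration for 50% growth inhibition is given as GI50. Definition used: TGI = concentration required for complete inhibition of growth.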

Tests used:
Assay in all cases: NCI-60 cell line screen, 48 h
MDA-N = system: MDA-N
DMS 114 small cell lung = system: DMS 114 small cell lung
DMS 273 small cell lung = system: DMS 273 small cell lung
KM20L2 colon = system: KM20L2 colon
LXFL 529 NSCLC = system: LXFL 529 NSCLC
RXF-631 renal = system: RXF-631 renal
SNB-78 CNS = system: SNB-78 CNS
XF 498 CNS = system: XF 498 CNS
HOP-18 NSCLC = system: HOP-18 NSCLC

Row | Compound | TGI (MDA-N) [µM] | TGI (DMS 114 small cell lung) [µM] | TGI (DMS 273 small cell lung) | TGI (KM20L2 colon) [µM] | TGI (LXFL 529 NSCLC) [µM] | TGI (SNB-78 CNS) [µM] | TGI (XF 498 CNS) | TGI (HOP-18 NSCLC) [µM] | other results
1 | CC(C)(C)NCc1cc(C(C)(C)C)cc(-c2ccc(Cl)cc2)c1O | 31.4 |  |  |  |  |  |  |  | 
2 | CN1c2ccccc2N(C)C2C1N(C)c1ccccc1N2C (configuration not stated) |  | 26 | > 100 µM | > 100 | > 100 | > 100 | 21.7 µM |  | TGI (RXF-631 renal): > 100 µM
3 | COC1OC(CO)C(O)C(O)C1Br (configuration not stated) |  |  | > 100 µM | > 100 | > 100 | > 100 | > 100 µM | > 100 | TGI (RXF-631 renal): > 100 µM
4 | CO/C1=C\C(C)=C\C(C)C(O)C(C)C/C(C)=C/C=C/C(OC)C(C(C)C(O)C(C)C2(O)CC(O)C(C)C(C(C)C)O2)OC1=O (configuration not stated) |  | 10.3 | 0.0107 µM and 0.0233 µM |  |  | 25 | 0.0849 µM and 0.0294 µM | 21.9 | GI50 (XF 498 CNS): 0.0122 µM
5 | COc1cc2noc(-c3ccccc3)c2cc1OC |  | > 100 | > 100 µM | > 100 | > 100 | > 100 |  | > 100 | TGI (RXF-631 renal): > 100 µM
6 | C(CCC[Te][Te]CCCCCCOC1CCCCO1)CCOC1CCCCO1 (configuration not stated) |  | 25.5 |  | 28.7 | 21.1 | 38.1 | 21.9 µM | 51.4 | 
7 | COc1cccc(C(=O)N2CCc3ccccc32)c1OC |  | > 100 | > 100 µM | > 100 | > 100 | > 100 | > 100 µM | > 100 | TGI (RXF-631 renal): > 100 µM
8 | CN(C)N1C(=O)c2ccccc2NC1c1ccccc1 (configuration not stated) | > 100 |  |  |  |  |  |  |  | 
9 | O=C(O)/C(=C/c1c(O)ccc2ccccc12)c1csc(-c2nc(/C(=C\c3c(O)ccc4ccccc34)C(=O)O)cs2)n1 |  | 25.5 |  | 50.6 | 29.8 | 34.7 |  |  | 
10 | NNc1nc2ccccc2c(=O)n1NC(=O)C(=O)Nc1cccc(C(F)(F)F)c1 | > 100 |  |  |  |  |  |  |  | 
11 | O=C1C=C(Br)C(=O)C12CCc1ccccc12 (configuration not stated) | 38 | 45.2 | 37.8 µM | 64.5 | 13.2 | 59.4 | 28.8 µM | 16.1 | 
12 | CC(=O)OC1CC2C(C)(C)C(=O)C=C[C@]2(C)C2CCC3(C)C(c4ccoc4)C(=O)[C@H]4O[C@]43[C@]12C (some centres not stated) |  | > 100 |  |  | > 100 | > 100 |  |  | 
13 | C1CSCCCSCCSCCCSC1 | > 100 |  |  |  |  |  |  |  | 
14 | NC(=O)N/N=C/C(/C=N/NC(N)=O)[N+](=O)[O-] |  | > 100 |  | > 100 | > 100 |  | > 100 µM |  | TGI (RXF-631 renal): > 100 µM
15 | C=C1C(=O)OC2CC1C(O)C/C(C)=C/CC/C(C)=C/C(O)CC2C (configuration not stated) | 9.53 |  |  |  |  |  |  |  | 
16 | COCC(=O)CP(=O)(OC)OC |  | > 100 | > 100 µM |  | > 100 | > 100 | > 100 µM |  | 
17 | CC[C@@]1(O)C(=O)NCc2c1cc1n(c2=O)Cc2cc3c(N)cccc3nc2-1 | 28.1 |  |  |  |  |  |  |  | GI50 (MDA-N): 3.4 µM
18 | O=c1[nH]c(=O)n(C2OC(CO)C(O)C2O)c2c1CCCC2 (configuration not stated) | > 100 |  |  |  |  |  |  |  | 
19 | CC1(C)OC(=O)C=C([O-])O1.CC1(C)OC(=O)C=C([O-])O1.O=S(=O)([O-])c1ccc([O-])c2ncccc12.O=S(=O)([O-])c1ccc([O-])c2ncccc12.[Ti+4] |  | > 100 | > 100 µM | > 100 | > 100 | > 100 |  | > 100 | GI50 (DMS 114 small cell lung): > 100 µM; GI50 (DMS 273 small cell lung): > 100 µM; GI50 (HOP-18 NSCLC): 26 µM; GI50 (KM20L2 colon): 43.3 µM; GI50 (LXFL 529 NSCLC): 67.1 µM; GI50 (SNB-78 CNS): > 100 µM
20 | Cc1c(C(=O)NCCO)[n+](=O)c2cc(Cl)ccc2n1[O-] |  | > 100 | > 100 µM | > 100 | > 100 | > 100 |  | > 100 | 
21 | CN(CN1C(=O)C2Cc3ccccc3CN2C1=O)c1ccccn1 (configuration not stated) |  | > 100 | > 100 µM | > 100 | > 100 |  | > 100 µM |  | 
22 | Cn1c(=O)nc2n(-c3cccc(F)c3)c3ccccc3nc-2c1=O |  |  | 32.8 µM | 45.4 | > 100 | 68.4 |  | > 100 | 
